In patent EP1357114A1, “Substituted pyrimidin-2,4(1H,3H)-diones as inhibitors of Matrix Metalloproteinases (MMP)” (IBFB GmbH Privates Institut für biomedizinische Forschung …, priority 2002, dated 2003):
pKi: −log10 of the molar value.

Tests used:
MMP-9 = target: T1, MMP-9 (Homo sapiens, UniProt P14780); assay: Quantitative fluorescence assay for matrix metalloproteinases (cleavage of Mca-Pro-Leu-Gly-Leu-Dpa-Ala-Arg-NH2); type: biochemical; settings: bei 10 µM
T1 construct: Das latente Enzym wird durch 30 - 60 min; Inkubation bei 37°C mit 1/100 Vol. Trypsin (10 mg/ml) aktiviert; from tissue; host or cells: human buffy coat (blood leukocytes)
T1 sequence (P14780 107-707 limits assumed): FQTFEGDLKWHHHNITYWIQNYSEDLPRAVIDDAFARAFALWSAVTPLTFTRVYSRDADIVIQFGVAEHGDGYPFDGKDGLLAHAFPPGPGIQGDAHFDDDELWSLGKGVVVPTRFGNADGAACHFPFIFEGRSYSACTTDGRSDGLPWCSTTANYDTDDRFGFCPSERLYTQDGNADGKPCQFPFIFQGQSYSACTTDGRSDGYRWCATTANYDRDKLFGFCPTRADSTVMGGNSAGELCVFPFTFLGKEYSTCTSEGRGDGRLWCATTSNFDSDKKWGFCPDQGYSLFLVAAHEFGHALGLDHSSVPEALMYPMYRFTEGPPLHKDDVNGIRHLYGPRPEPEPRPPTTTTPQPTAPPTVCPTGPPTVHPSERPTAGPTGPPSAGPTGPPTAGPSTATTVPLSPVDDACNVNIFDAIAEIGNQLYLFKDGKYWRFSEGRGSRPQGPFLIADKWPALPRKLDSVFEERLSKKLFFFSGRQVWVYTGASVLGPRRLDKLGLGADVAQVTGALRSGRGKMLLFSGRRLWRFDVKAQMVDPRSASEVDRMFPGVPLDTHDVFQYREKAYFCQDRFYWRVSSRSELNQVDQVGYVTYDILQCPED
Description: Native MMP-9 wurde reproduzierbar und in guter Ausbeute und Reinheit aus humanem Buffy Coat gewonnen. Hierzu wird Buffy Coat mit 10% (v/v) Triton X-100 auf eine Endkonzentration von 0,4% gebracht, 30 min. auf Eis geschüttelt und dann 1 Vol. 2-fach Bindungspuffer (40 mM Tris-HCI pH 7,5, 10 mM CaCl2, 1 M NaCI, 0,2% (v/v) Triton X-100) hinzugefügt und weitere 30 min. auf Eis geschüttelt. Die Lösung wird 15 min. bei 16 000 Upm an einem SS-34 Rotor bei 4°C abzentrifugiert und über Glaswolle filtriert. Das Filtrat wird mit Gelatine-Agarose, welche mit Bindungspuffer äquilibriert wurde, gebatcht und 1 Std. auf Eis geschüttelt. Die beladene Gelatine-Agarose wird in eine Säule überführt und mit mindestens 10 Vol. Bindungspuffer proteinfrei gespült. Die Elution der gebundenen MMP-9 erfolgt mit 2 Gelvolumen Bindungspuffer plus 5% (v/v) DMSO. Das Eluat kann zum Puffer-Austausch und gleichzeitiger Abtrennung geringer Verunreinigungen an MMP-2 über eine Gelfiltration an Sephadex G-75 aufgetrennt werden. Hierzu wird der Puffer I (20 mM Tris-HCI pH 7,5, 5 mM CaCl2, 100 mM NaCI, 0,1% (v/v) Triton X-100) verwendet. Das so gewonnene Eluat enthällt MMP-9 in den drei bekannten Zustandsformen: Monomer, Homodimer, Heterodimer. Die Reinheit des Enzyms beträgt ca. 90%, wobei die restlichen Fremdproteine Fibronektin und äußerst geringe Mengen an TIMP's sind. Das latente Enzym wird durch 30 - 60 min. Inkubation bei 37°C mit 1/100 Vol. Trypsin (10 mg/ml) aktiviert. Trypsin wird durch Zugabe von 1 mM PMSF oder mit einem spezifischen Inhibitor (TKI) gehemmt.
(§1) Durch enzymatische Spaltung des synthetischen Substrates Mca-Pro-Leu-Gly-Leu-Dpa-Ala-Arg-NH2 durch die jeweilige Kollagenase, wird die fluoreszente Gruppe Mca ((7-Methoxycoumarin-4-yl)acetyl) vom internen Quencher Dpa ((N-3-(2,4-dinitrophenyl)-L-2,3-diaminopropienyl) getrennt. Dabei erfolgt eine starke Zunahme der Fluoreszenz im Messansatz, die am Fluorimeter quantifiziert werden kann (λex 328 nm, λem 393 nm) und innerhalb der ersten Minuten linear verläuft. Eine gewisse Spezifität des Tests für Matrix-Metalloproteinasen ergibt sich einerseits aus der Aminosäuresequenz -Pro-Leu-Gly-Leu- im Substrat und andererseits durch die gewählten Inkubationsbedingungen. Matrix-Metalloproteinasen spalten das Substrat an der Bindung Gly-Leu. Gemessen wird die proteolytische Restaktivität vorinkubierter Ansätze von Enzym und Inhibitor, wobei die Substrat- und Enzymkonzentration konstant gehalten und die Inhibitorkonzentration variiert wurde. Es wurden für jeden getesteten Inhibitor drei Messreihen mit unterschiedlicher Substratkonzentration aufgenommen. Aus der zeitabhängigen Fluoreszenzzunahme wird die Enzymaktivität in Fluoreszenzeinheiten pro min berechnet. Die Bestimmung der Ki-Werte erfolgte graphisch nach der Methode von DIXON (1953) durch Auftragung der reziproken Reaktionsgeschwindigkeit 1/v (y-Achse) gegen Inhibitorkonzentration (x-Achse).
(§2) 1984 µl Messpuffer (100mM Tris-HCI pH 7,5, 100 mM NaCI, 10 mM CaCl2, 0,05% Brij 35 bzw. 50 mM MES-NaOH, pH 6.0, 10 mM CaCl2, 100 mM NaCI, 0.05% Brij 35 im Fall der KaDo MMP-3) 2 µl Inhibitor, gelöst in DMSO, bzw. DMSO allein (nichtinhibierender Ansatz) 4 µl Enzym • 5 min. Vorinkubation des Enzym-Inhibitor-Gemischs bei Raumtemperatur unter Rühren • Start der Reaktion mit 10 µl Substrat gelöst in DMSO • Aufzeichnung der zeitabhängigen Fluoreszenzzunahme über 2 - 10 min.

[1] = target: T2, katalytische Domäne der MMP-8 (Homo sapiens, UniProt P22894); assay: as above; type: biochemical
T2 construct: dass wir statt des Gesamtenzyms nur dessen enzymatisch aktive katalytische Domäne in E. coli klonierten; made in house; host or cells: E. coli
T2 sequence (P22894 100-262 limits assumed): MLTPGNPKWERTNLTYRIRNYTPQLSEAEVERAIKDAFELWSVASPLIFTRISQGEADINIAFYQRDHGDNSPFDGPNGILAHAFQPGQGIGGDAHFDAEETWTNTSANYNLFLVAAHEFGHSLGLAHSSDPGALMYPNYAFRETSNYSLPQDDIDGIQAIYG
Source text: Die Nutzung der katalytischen Domäne der MMP-8 als weiteres Testenzym wurde deshalb gewählt, weil es eine hohe Stabilität besitzt und darüber hinaus als aktives Enzym vorliegt. Es muß deshalb nicht aktiviert werden, was eine der häufigsten Fehlerursachen darstellt, da die zur Aktivierung genutzten Quecksilberverbindungen häufig mit dem Testsystem bzw. dem Enzym interferieren und dadurch die Messergebnisse verfälschen werden. Die Klonierungsstrategie gestalteten wir so, dass wir statt des Gesamtenzyms nur dessen enzymatisch aktive katalytische Domäne in E. coli klonierten. Mit der konstruierten katalytischen Domäne der MMP-8 erzielten wir ein stabiles, enzymatisch aktives und hochreines Enzym, welches für die Routineuntersuchungen der inhibitorischen Aktivität der synthetisierten Inhibitoren sehr gut geeignet war und die Messergebnisse der einzelnen Messserien miteinander vergleichbar machte. Die Klonierung und Expression der katalytischen Domäne der MMP-8 wurde entsprechend den Angaben von SCHNIERER et al. (Schnierer S, Kleine T, Gote T, Hillemann A, Knäuper V, Tschesche H: The recombinant catalytic domain of human neutrophil collagenase lacks type I collagen substrate specificity. Biochem Biophys Res Comm (1993) vol. 191 No. 2, 319-326) durchgeführt.
as §1, §2

| MMP-8 Hemmung ([1]; bei 10 µM) [% Hemmung bei 10 µM] | Structure (SMILES) | MMP-9 Hemmung (MMP-9) [% Hemmung bei 10 µM] | pKi ([1]; Dixon plot) |
| --- | --- | --- | --- |
| 43 | Cc1cccc2c(=O)n(CC(S)CS)c(=O)[nH]c12 (racemic) [Beispiel 6, (R,S)-3-(2,3-Dimercaptopropyl)-8-methyl-chinazolin-2,4-(1H,3H)dion] | 55 | – |
| – | CC(S)(CS)Cn1c(=O)[nH]c2ccccc2c1=O (racemic) [Beispiel 2, (R,S)-3-(2,3-Dimercapto-2-methylpropyl)chinazolin-2,4-(1H,3H)dion] | 10 | 4.22 |
